Results published in patent US3995044A, “Pyridine carboxylic acid amides for mycobacterium infections” (priority 1974, dated 1976).
≈ marks a conversion by molar mass, not a printed value.

Legend:
[1] = tested on: Mycobacterium tuberculosis H37Rv; assay: Minimum inhibitory concentration on Lowenstein-Jensen egg medium, normally sensitive test strain; assay type: cell-based; details: per ml of nutrient medium
[2] = tested on: Mycobacterium tuberculosis H37Rv; assay: In vivo action in guinea pigs infected with tuberculosis (Tb germ count in lung); details: 30 mg/kg orally, once daily from 14th day, 3 weeks (5 times per week)
Experimental: (§1) The animal experiments were above all carried out with white mice (CFI breed, Winkelmann, Kirchborchen) infected with Mycobacterium tuberculosis H37Rv. After intravenous infection with 10^4 -10^5 germ units/mouse, an oral or subcutaneous treatment was carried out once daily for a period of 2 weeks (that is to say 5 times per week). At predetermined intervals of time (11th, 14th and 17th day after infection) mice from the treatment groups were killed, the spleens were removed and standardised smear preparations were produced from the homogenate; the tubercle germ content in these was evaluated by means of fluorescence microscopy. […] The values obtained are grouped together in 5 rating groups and give a germ count index; the indices denote the following:
(§2) Index 0 corresponds to a reduction in the germ count of
(§3) Index 1 corresponds to a reduction in the germ count of
(§4) Index 2 corresponds to a reduction in the germ count of
(§5) >40-70% = distinct action
(§6) Index 3 corresponds to a reduction in the germ count of
Index 4 corresponds to a reduction in the germ count of
In addition to the experiments on mice infected with tuberculosis, experiments were carried out analogously on guinea pigs. In this case, the germ count was determined on the lung homogenate. The animals were infected subcutaneously intrainguinally with Mycobacterium tuberculosis H37Rv and were subjected to therapy once daily from the 14th day after infection over a period of 3 weeks, that is to say 5 times per week. The germ counts were determined in the 4th, 5th and 6th week after infection.

[3] = tested on: Mycobacterium tuberculosis H37Rv; assay: In vivo action in mice infected with tuberculosis (Tb germ count in spleen); set-up: species or system white mice (CFI breed); details: once daily, 2 weeks (5 times per week); for In vivo action, index of reduction in Tb germs, Tb-mice, orally: 100 mg/kg orally; for In vivo action, index of reduction in Tb germs, Tb-mice, subcutaneously: 100 mg/kg subcutaneously
Experimental: as §1, §2, §3, §4, §5, §6
Index 4 corresponds to a reduction in the germ count of […]

[4] = tested on: "Atypical mycobacteria" Runyon Grouping 2; assay: Anti-mycobacterial spectrum of action (MIC), atypical mycobacteria Runyon grouping 2; assay type: cell-based; details: modified Difco-Tb-Bouillon
[5] = tested on: "Atypical mycobacteria" Runyon Grouping 4; assay: Anti-mycobacterial spectrum of action (MIC), atypical mycobacteria Runyon grouping 4; assay type: cell-based; details: modified Difco-Tb-Bouillon
[6] = tested on: Mycobacterium tuberculosis H37Rv; assay: MIC in modified Difco-Tb-Bouillon, normally sensitive strain; assay type: cell-based
[7] = tested on: "Atypical mycobacteria" Runyon Grouping 1; assay: Anti-mycobacterial spectrum of action (MIC), atypical mycobacteria Runyon grouping 1; assay type: cell-based; details: modified Difco-Tb-Bouillon
[8] = tested on: "Atypical mycobacteria" Runyon Grouping 3; assay: Anti-mycobacterial spectrum of action (MIC), atypical mycobacteria Runyon grouping 3; assay type: cell-based; details: modified Difco-Tb-Bouillon
M. bovis Ravenal = assay: microbe, parasite or virus in culture; assay type: cell-based; details: Mycobacterium tuberculosis variant bovis, read-out: MIC, M. bovis Ravenal
[9] = Table 2, read-out: MIC, normally sensitive H37Rv (Table 2)
[10] = Table 3, read-out: MIC, M. tuberculosis H37Rv (Table 3)

Row | Compound | MIC [1] | In vivo action, index of reduction in Tb germs, Tb-guinea pigs, orally [2] | In vivo action, index of reduction in Tb germs, Tb-mice, orally [3] | In vivo action, index of reduction in Tb germs, Tb-mice, subcutaneously [3] | MIC [4] | MIC [5] | MIC [6, 9] | MIC [6, 10] | MIC [7] | MIC [8] | MIC (M. bovis Ravenal)
1 | O=C(NCc1cccnc1)c1cc([N+](=O)[O-])cc([N+](=O)[O-])c1 [Example 12] | 32 µg/mL (≈ 106 µM) | 3 (reduction in the germ count of >70-90% = good action) | 2 (reduction in the germ count of >40-70% = distinct action) | 2 (reduction in the germ count of >40-70% = distinct action) | – | – | – | – | – | – | –
2 | O=C(NCc1cnc2ccccc2c1)c1cc([N+](=O)[O-])cc([N+](=O)[O-])c1 [Example 9] | 2 µg/mL (≈ 5.68 µM) | 4 (reduction in the germ count of >90% = very good action) | 1 (reduction in the germ count of >20-40% = trace action) | 1 (reduction in the germ count of >20-40% = trace action) | 3.1 µg/mL (≈ 8.8 µM) | 1.6 µg/mL (≈ 4.54 µM) | 0.2 µg/mL (≈ 0.568 µM) | 0.2 µg/mL (≈ 0.568 µM) | 3.1 µg/mL (≈ 8.8 µM) | > 100 µg/mL | 0.4 µg/mL (≈ 1.14 µM)
3 | CC(NC(=O)c1cc([N+](=O)[O-])cc([N+](=O)[O-])c1)c1ccccn1 (stereo not shown) [Example 29] | 2 µg/mL (≈ 6.32 µM) | – | 4 (reduction in the germ count of >90% = very good action) | 3 (reduction in the germ count of >70-90% = good action) | 3.1 µg/mL (≈ 9.8 µM) | 3.1 µg/mL (≈ 9.8 µM) | 1.6 µg/mL (≈ 5.06 µM) | 1.6 µg/mL (≈ 5.06 µM) | 3.1 µg/mL (≈ 9.8 µM) | 100 µg/mL (≈ 316 µM) | 3.1 µg/mL (≈ 9.8 µM)
4 | O=C(NCc1ccncc1)c1cc([N+](=O)[O-])cc([N+](=O)[O-])c1 [Example 13] | 32 µg/mL (≈ 106 µM) | 4 (reduction in the germ count of >90% = very good action) | 3 (reduction in the germ count of >70-90% = good action) | 2 (reduction in the germ count of >40-70% = distinct action) | – | – | – | – | – | – | –
5 | Cc1cccc(CNC(=O)c2cc([N+](=O)[O-])cc([N+](=O)[O-])c2)n1 [Example 14] | – | – | – | – | 12.5 µg/mL (≈ 39.5 µM) | 12.5 µg/mL (≈ 39.5 µM) | 3.1 µg/mL (≈ 9.8 µM) | 3.1 µg/mL (≈ 9.8 µM) | 6.2 µg/mL (≈ 19.6 µM) | 25 µg/mL (≈ 79 µM) | 3.1 µg/mL (≈ 9.8 µM)
6 | O=C(NCc1ccc2ccccc2n1)c1cc([N+](=O)[O-])cc([N+](=O)[O-])c1 [Example 15] | 1 µg/mL (≈ 2.84 µM) | 3 (reduction in the germ count of >70-90% = good action) | 3 (reduction in the germ count of >70-90% = good action) | 2 (reduction in the germ count of >40-70% = distinct action) | 6.2 µg/mL (≈ 17.6 µM) | 1.6 µg/mL (≈ 4.54 µM) | 0.2 µg/mL (≈ 0.568 µM) | 0.2 µg/mL (≈ 0.568 µM) | 1.6 µg/mL (≈ 4.54 µM) | 1.6 µg/mL (≈ 4.54 µM) | 0.8 µg/mL (≈ 2.27 µM)
7 | O=C(NCCc1ccccn1)c1cc([N+](=O)[O-])cc([N+](=O)[O-])c1 [Example 10] | 1 µg/mL (≈ 3.16 µM) | 3 (reduction in the germ count of >70-90% = good action) | 2 (reduction in the germ count of >40-70% = distinct action) | 2 (reduction in the germ count of >40-70% = distinct action) | – | – | – | – | – | – | –
8 | O=C(NCC1CCCO1)c1cc([N+](=O)[O-])cc([N+](=O)[O-])c1 (stereo not shown) [Example 20] | – | – | – | – | 6.2 µg/mL (≈ 21 µM) | 6.2 µg/mL (≈ 21 µM) | 1.6 µg/mL (≈ 5.42 µM) | 1.6 µg/mL (≈ 5.42 µM) | 6.2 µg/mL (≈ 21 µM) | 100 µg/mL (≈ 339 µM) | 3.1 µg/mL (≈ 10.5 µM)
9 | O=C(NCc1ccccn1)c1cc([N+](=O)[O-])cc([N+](=O)[O-])c1 [Example 1, N-(pyrid-2-ylmethyl)-3,5-dinitrobenzoic acid amide] | 1 µg/mL (≈ 3.31 µM) | 4 (reduction in the germ count of >90% = very good action) | 4 (reduction in the germ count of >90% = very good action) | 3 (reduction in the germ count of >70-90% = good action) | 6.2 µg/mL (≈ 20.5 µM) | 6.2 µg/mL (≈ 20.5 µM) | 1.6 µg/mL (≈ 5.29 µM) | 1.6 µg/mL (≈ 5.29 µM) | 6.2 µg/mL (≈ 20.5 µM) | 50 µg/mL (≈ 165 µM) | 3.1 µg/mL (≈ 10.3 µM)
10 | O=C(NCC1CCC=CO1)c1cc([N+](=O)[O-])cc([N+](=O)[O-])c1 (stereo not shown) [Example 22] | – | – | – | – | 1.6 µg/mL (≈ 5.21 µM) | 1.6 µg/mL (≈ 5.21 µM) | 0.4 µg/mL (≈ 1.3 µM) | 0.4 µg/mL (≈ 1.3 µM) | 1.6 µg/mL (≈ 5.21 µM) | > 100 µg/mL | 3.1 µg/mL (≈ 10.1 µM)
